Results published in publication PMC5842406, “Antidyslipidemic potential of a novel farnesoid X receptor antagonist in a hamster model of dyslipidemia: Comparative studies of other nonstatin agents” (Pharmacology Research & Perspectives, 2018).

Key:
FXR [1] = target: T1, FXR (Homo sapiens, UniProt Q96RI1); experiment: luciferase reporter gene assay, agonist mode; assay type: cell-based; details: read-out: ED50 values
T1 construct: gene NR1H4
T1 sequence (Q96RI1 1-486): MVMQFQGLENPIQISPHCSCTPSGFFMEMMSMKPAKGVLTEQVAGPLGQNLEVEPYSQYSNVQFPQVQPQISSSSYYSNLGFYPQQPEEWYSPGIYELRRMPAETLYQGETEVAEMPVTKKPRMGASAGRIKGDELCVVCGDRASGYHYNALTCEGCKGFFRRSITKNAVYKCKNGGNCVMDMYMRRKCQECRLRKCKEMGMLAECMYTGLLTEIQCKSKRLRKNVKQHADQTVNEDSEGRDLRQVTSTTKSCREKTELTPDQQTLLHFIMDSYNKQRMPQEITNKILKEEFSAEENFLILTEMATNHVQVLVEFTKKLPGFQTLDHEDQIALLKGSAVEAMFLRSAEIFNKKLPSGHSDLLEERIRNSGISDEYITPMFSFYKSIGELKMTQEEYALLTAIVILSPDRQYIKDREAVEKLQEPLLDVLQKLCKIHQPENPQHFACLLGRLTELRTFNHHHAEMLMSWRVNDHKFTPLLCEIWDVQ
Description: luciferase reporter gene assay, agonist mode on FXR

RXRβ = tested on: T2, RXRβ; experiment: nuclear receptor panel reporter assay, antagonist mode; assay type: cell-based, Homo sapiens; details: control ligand not told for RXRβ
T2 construct: gene RXRB; not described
Description: nuclear receptor panel reporter assay, antagonist mode on RXRβ

PPARγ = target: T3, PPARγ (Homo sapiens, UniProt P37231); experiment: nuclear receptor panel assay, agonist mode; assay type: cell-based; details: read-out: ED50 values
T3 construct: gene PPARG
T3 sequence (P37231 1-505): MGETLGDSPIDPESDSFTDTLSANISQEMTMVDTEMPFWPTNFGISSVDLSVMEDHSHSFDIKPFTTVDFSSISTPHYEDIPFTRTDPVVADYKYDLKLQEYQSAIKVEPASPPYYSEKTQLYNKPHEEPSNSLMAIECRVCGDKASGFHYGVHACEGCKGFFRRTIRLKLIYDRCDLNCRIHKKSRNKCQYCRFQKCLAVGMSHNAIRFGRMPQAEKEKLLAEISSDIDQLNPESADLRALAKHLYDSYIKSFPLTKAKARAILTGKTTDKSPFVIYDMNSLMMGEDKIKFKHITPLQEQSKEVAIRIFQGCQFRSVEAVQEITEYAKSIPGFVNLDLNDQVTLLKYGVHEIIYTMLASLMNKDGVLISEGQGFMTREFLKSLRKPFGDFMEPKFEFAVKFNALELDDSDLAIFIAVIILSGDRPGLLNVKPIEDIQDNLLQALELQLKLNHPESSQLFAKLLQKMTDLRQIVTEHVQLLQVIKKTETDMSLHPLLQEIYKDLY
Description: nuclear receptor panel assay, agonist mode on PPARγ

FXR [2] = target: T1, FXR; experiment: luciferase reporter gene assay, antagonist mode; assay type: cell-based
Description: luciferase reporter gene assay, antagonist mode on FXR

EC50 (FXR [1]): > 10 µM | IC50 (RXRβ): > 10 µM | EC50 (PPARγ): > 10 µM | IC50 (FXR [2]): 0.0021 µM
Structure (SMILES): CC(C)(C)n1ncc(C(=O)Nc2ccc(Cl)c(CN3CCC(Oc4ccc(C(=O)O)cc4)CC3)c2)c1-c1ccc(F)cc1 [compound‐T1, 4‐({1‐[5‐({[1‐tert‐butyl‐5‐(4‐fluorophenyl)‐1H‐pyrazol‐4‐yl]carbonyl}amino)‐2‐chlorobenzyl]piperidin‐4‐yl}oxy)benzoic acid]
